Reference: patent US20080262097A1, “Formulations” (priority 2005, published 2008)
Values after ≈ are worked out from the molar mass of the structure shown. Read-outs that look alike come from different tables or passages of the source.

Key:
E faecalis ATCC 29212 [1] = experiment: Disc diffusion assay (DDA); type: cell-based, Enterococcus faecalis; settings: zone diameter, 200 μg per disc
Text: 3. Enterococcus faecalis ATCC 29212—this is a Gram-positive bacterium belonging to the genus Enterococcus. Enterococci have similar properties to streptococci, but differ in their ability to grow on bile-salt containing media such as MacConkey's Agar. Their principal habitat is the mammalian gastrointestinal tract. They cause a number of important infections including endocarditis, urinary tract infections and abscesses. In the context of skin, they are frequently isolated from wound infections. Unlike the streptococci, the enterococci have developed widespread resistance to penicillin. More recently, E. faecalis and E. faecium strains have also developed resistance to the glycopeptide antibiotics such as vancomycin. Vancomycin-Resistant Enterococci (VRE), principally vanA strains of E. faecium, now represent a serious healthcare-acquired infection hazard in the USA, Japan and Western Europe. […]
A sterile paper disc was impregnated with a sample of the test compound and a minimum of 30 minutes allowed for the solvents to evaporate as far as possible. […] The diameter of this zone of “inhibition” was measured using a ProtoCOL™ automated zone sizer (Synbiosis, Cambridge, UK). […]
The area of the zone of inhibition was calculated from the measured zone diameter (D) using the formula π(D/2)^2. […]

P. granulosum PRP-055 = experiment: MIC assay; type: cell-based; settings: P. granulosum PRP-055 (resistance None)
Experimental: (§1) The Propionibacterium spp organisms were cultured and maintained on Wilkins-Chalgren Anaerobe Medium (agar and broth) at pH 6.0; cultures were incubated anaerobically at 37° C. for 72 hours.
(§2) This is a standard international method for quantitatively assessing the antimicrobial activity of a compound in a liquid medium. The method used a 96-well microtitre plate, capable of holding about 200 μl of liquid per well. […] The culture media were as described above for the relevant test organisms.
(§3) The wells were inoculated with a liquid suspension of freshly grown micro-organism and incubated under the conditions described above. After incubation, the microtitre plate was examined visually (with the aid of a light box) for cell pellets in and/or opaque wells, which would indicate microbial growth. The MIC value was recorded as the lowest concentration of test compound required to inhibit microbial growth, ie, the lowest concentration for which the liquid in the well remained clear.
(§4) The assays were conducted in duplicate and included both negative (culture medium only) and positive (culture medium, diluting solvent and inoculum) controls.

P. granulosum PRP-044 = experiment: MIC assay; type: cell-based; settings: P. granulosum PRP-044 (resistance MLS)
Experimental: as §1, §2, §3, §4

P. granulosum PRP-005 = experiment: MIC assay; type: cell-based; settings: P. granulosum PRP-005 (resistance MLSK)
Experimental: as §1, §2, §3, §4

P. granulosum NCTC 11865 = experiment: MIC assay; type: cell-based; settings: P. granulosum NCTC 11865 (resistance None)
Experimental: as §1, §2, §3, §4

P. granulosum PRP-043 = experiment: MIC assay; type: cell-based; settings: P. granulosum PRP-043 (resistance MLS)
Experimental: as §1, §2, §3, §4

P. avidum ATCC 25577 = experiment: MIC assay; type: cell-based; settings: Cutibacterium avidum, ATCC25577; P. avidum ATCC 25577 (resistance None)
Experimental: as §1, §2, §3, §4

S. aureus CPHL EMRSA 16 [2] = experiment: Disc diffusion assay (DDA); type: cell-based, Staphylococcus aureus; settings: zone diameter, 200 μg per disc
Experimental: (§5) Other staphylococcal strains were also tested, as described in Example 5 below. These included certain antibiotic resistant staphylococci, such as the methicillin resistant S. aureus (MRSA) strains EMRSA-15 and EMRSA-16, both available from the Central Public Health Laboratory (CPHL), Colindale, UK. These strains are resistant not only to all beta-lactams but also to a number of other antibiotics in clinical use, making them a serious threat to human health. They are also responsible for the majority (>95%) of hospital-acquired MRSA infections in the UK.
(§6) The staphylococci and enterococci were cultured and maintained on Mueller-Hinton Medium (agar and broth) at pH 7.2; they were incubated aerobically at 37° C. for 24 hours.
(§7) A sterile paper disc was impregnated with a sample of the test compound and a minimum of 30 minutes allowed for the solvents to evaporate as far as possible. The disc was then placed on an agar plate onto which the test micro-organism had been inoculated. The plate was then incubated under the conditions described above, following which it was examined visually for signs of bacterial growth. If the test compound had antimicrobial activity, a circular zone of no growth would be obtained around the disc. The diameter of this zone of “inhibition” was measured using a ProtoCOL™ automated zone sizer (Synbiosis, Cambridge, UK). In general, a greater diameter and/or area of the zone of inhibition indicates a greater antimicrobial activity in the relevant test compound, although other factors such as test compound mobility through the agar gel may also influence the result.
(§8) The area of the zone of inhibition was calculated from the measured zone diameter (D) using the formula π(D/2)^2.

S. aureus CPHL EMRSA 15 [3] = experiment: Disc diffusion assay (DDA); type: cell-based, Staphylococcus aureus; settings: zone diameter, 200 μg per disc
Experimental: as §5, §6, §7, §8

E faecalis ATCC 29212 [4] = experiment: MBC assay; type: cell-based; settings: Enterococcus faecalis, ATCC29212
Text: 3. Enterococcus faecalis ATCC 29212—this is a Gram-positive bacterium belonging to the genus Enterococcus. Enterococci have similar properties to streptococci, but differ in their ability to grow on bile-salt containing media such as MacConkey's Agar. Their principal habitat is the mammalian gastrointestinal tract. They cause a number of important infections including endocarditis, urinary tract infections and abscesses. In the context of skin, they are frequently isolated from wound infections. Unlike the streptococci, the enterococci have developed widespread resistance to penicillin. More recently, E. faecalis and E. faecium strains have also developed resistance to the glycopeptide antibiotics such as vancomycin. Vancomycin-Resistant Enterococci (VRE), principally vanA strains of E. faecium, now represent a serious healthcare-acquired infection hazard in the USA, Japan and Western Europe.
as §6
(§9) This assay, normally carried out after an MIC assay, determines the minimum concentration of a compound that is lethal to the micro-organism being tested.
These samples were then individually sub-cultured on non-selective agar medium, under the incubation conditions described above. […]

S. aureus CPHL EMRSA 16 [5] = experiment: MBC assay; type: cell-based; settings: Staphylococcus aureus; S. aureus CPHL EMRSA 16 (resistance Met/β-lactams)
Experimental: as §5, §6, §9
(§10) These samples were then individually sub-cultured on non-selective agar medium, under the incubation conditions described above. Following incubation they were examined visually for bacterial growth.

S. aureus CPHL EMRSA 15 [6] = experiment: MBC assay; type: cell-based; settings: Staphylococcus aureus
Experimental: as §5, §6, §9, §10

SMILES	DDA (E faecalis ATCC 29212 [1]) [mm]	MIC (P. granulosum PRP-055) [mg/L]	MIC (P. granulosum PRP-044) [mg/L]	MIC (P. granulosum PRP-005) [mg/L]	MIC (P. granulosum NCTC 11865) [mg/L]	MIC (P. granulosum PRP-043) [mg/L]	MIC (P. avidum ATCC 25577) [mg/L]	DDA (S. aureus CPHL EMRSA 16 [2]) [mm]	DDA (S. aureus CPHL EMRSA 15 [3]) [mm]	MBC (E faecalis ATCC 29212 [4]; E faecalis ATCC 29212, read-out: MBC) [mg/L]	MBC (S. aureus CPHL EMRSA 16 [5]) [mg/L]	MBC (S. aureus CPHL EMRSA 15 [6]) [mg/L]	MBC (E faecalis ATCC 29212 [4]) [mg/L]	MBC (S. aureus CPHL EMRSA 15 [6]; S. aureus CPHL EMRSA 15 (resistance Met/β-lactams), read-out: MBC) [mg/L]
O=C(OOC(=O)c1ccccc1)c1ccccc1 [benzoyl peroxide]	0.0	15.6 (≈ 64.4 µM)	31.2 (≈ 129 µM)	15.6 (≈ 64.4 µM)	15.6 (≈ 64.4 µM)	62.5 (≈ 258 µM)	31.2 (≈ 129 µM)	10.80	10.17	> 250	250 (≈ 1030 µM)	125 to 250 (≈ 516 to 1030 µM)		
CC(C)(C)c1cc(O)ccc1O [TBHQ, t-butyl hydroquinone]	33.67	3.9 (≈ 23.5 µM)	15.6 (≈ 93.9 µM)	62.5 (≈ 376 µM)	3.9 (≈ 23.5 µM)	15.6 (≈ 93.9 µM)	3.9 (≈ 23.5 µM)	67.72	55.14		3.9 (≈ 23.5 µM)		31.2	3.9 (≈ 23.5 µM)
